In patent US20090170768A1, “WATER-SOLUBLE CARBON NANOTUBE COMPOSITIONS FOR DRUG DELIVERY AND MEDICINAL APPLICATIONS” (William Marsh Rice University, priority 2007, published 2009):
Like-named read-outs stand apart in the source and are kept apart here.

Key:
Tu167 cells = experiment: MTT assay, in vitro cell killing in Tu167 cells; assay type: cell-based
Protocol: (§1) For the analyses, the analyses presented in FIGS. 1 and 2, the paclitaxel was dissolved in either acidic MeOH (FIG. 1) or neutral MeOH (FIG. 2) prior to association with the PEG-functionalized SWNTs. The MeOH was removed from the compositions by evaporation following sequestration of the paclitaxel by the PEG-functionalized SWNT matrix. MeOH removal was performed prior to MTT analysis. […] The control paclitaxel was dissolved in a cremaphor vehicle.

UMSCC1 cells = experiment: MTT assay, in vitro cell killing in UMSCC1 cells; assay type: cell-based; conditions: Homo sapiens
Protocol: as §1
For the analysis presented in FIG. 4, the paclitaxel was dissolved in EtOH prior to association with the PEG-functionalized SWNTs. The EtOH was removed from the compositions by evaporation following sequestration of the paclitaxel by the PEG-functionalized SWNT matrix. EtOH removal was performed prior to MTT analysis.

[1] = Paclitaxel solubilization in water with or without PEG-functionalized carbon nanotubes
cells = experiment: Intracellular delivery of FITC (cell fluorescence); assay type: cell-based; conditions: provided to cells
Source text: In certain embodiments, the compositions provide intracellular delivery of the at least one type of payload molecule. The intracellular delivery may occur in vitro or in vivo. […] Thus, the compositions provide intracellular delivery of the at least one type of payload molecule.

Molecule | IC50 (Tu167 cells; Tu167 cells, MTT, vehicle per row (cremaphor or aqueous), R^2 in parentheses, read-out: Tu167 IC50 (nm): R^2) | IC50 (Tu167 cells; dissolved in cremaphor vehicle (FIG. 3), read-out: IC50 in Tu167 cells) | IC50 (UMSCC1 cells; UMSCC1, cremaphor vehicle (FIG. 5), read-out: IC50 in UMSCC1 cells) | IC50 (UMSCC1 cells; UMSCC1 cells, MTT, vehicle per row (cremaphor or aqueous), R^2 in parentheses, read-out: UMSCCI IC50 (nm): R^2) | precipitation from solution ([1]; 1 mg paclitaxel in 70 μL ethanol added to 1 mL of a solution containing PEG-functionalized carbon nanotubes) | precipitation from solution ([1]; 1 mg paclitaxel in 70 μL ethanol added to 1 mL of water) | intracellular fluorescence (cells)
CC(=O)O[C@H]1C(=O)[C@@]2(C)[C@H]([C@H](OC(=O)c3ccccc3)[C@]3(O)C[C@H](OC(=O)[C@H](O)[C@@H](NC(=O)c4ccccc4)c4ccccc4)C(C)=C1C3(C)C)[C@]1(OC(C)=O)CO[C@@H]1C[C@@H]2O [PACLITAXEL, paclitaxel] | 0.62 nM | 0.62 nM | 0.26 nM | 0.26 nM | no paclitaxel precipitates from solution | immediately precipitates from solution | 
fluorescein isothiocyanate [FITC] |  |  |  |  |  |  | no intracellular fluorescence was observed
